SMILES strings stand for the structures.

Experiment [1] addresses EED (Homo sapiens, UniProt O75530). As to the kind of experiment: EED TR-FRET Binding Assay (modified LanthaScreen competition assay). The protocol:
Compounds were tested in a modified LanthaScreen competition assay.
The following buffer was used to set up the binding reactions: 20 mM Tris-HCl pH 7.5, 200 mM NaCl, 0.01% Tween-20, 10 uM DTT (dithiothreitol), and 0.05% BSA (bovine serum albumin), with the DTT and BSA added fresh prior to initiating the binding assay. […] The reactions were then incubated for 1 hour at 25° C. in a humidified chamber prior to detection on the Perkin Elmer Envision plate reader using a Lanthascreen TR-FRET protocol.

Experiment [2] relates to Pfeiffer cells. The experiment can be described thus: CTG cell viability assay (CellTiter-Glo). The experiment is classed as cell-based. Particulars: Homo sapiens, 240 h; Pfeiffer cells, 10 days with compound, CellTiter-Glo; read-out: Cell Proliferation IC50. The protocol:
1,000 cells were plated into each well of 96-well Corning CellBing cell culture plates and incubated overnight at 37° C. in a humidified CO2 incubator. […] The cell culture plates were then incubated for 10 more days. CTG cell viability assay was performed on the cell culture samples by using CellTiter-Glo® Luminescent Cell Viability Assay Kit (Promega).

Chain of EED (O75530 whole entry): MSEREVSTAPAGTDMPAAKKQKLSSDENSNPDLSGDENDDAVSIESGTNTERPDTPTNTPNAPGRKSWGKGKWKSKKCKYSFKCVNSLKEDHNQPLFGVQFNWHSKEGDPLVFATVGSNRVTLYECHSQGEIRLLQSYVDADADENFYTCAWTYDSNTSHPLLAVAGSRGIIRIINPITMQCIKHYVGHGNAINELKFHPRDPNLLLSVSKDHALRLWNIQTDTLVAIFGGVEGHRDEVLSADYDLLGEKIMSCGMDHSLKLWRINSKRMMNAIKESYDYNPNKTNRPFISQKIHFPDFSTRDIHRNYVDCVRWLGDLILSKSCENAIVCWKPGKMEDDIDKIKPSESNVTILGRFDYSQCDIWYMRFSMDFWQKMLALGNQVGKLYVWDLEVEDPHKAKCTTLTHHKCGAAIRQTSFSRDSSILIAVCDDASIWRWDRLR

Regarding `CN(C)[C@H]1CN(C2CCc3cccc(F)c32)C[C@@H]1c1cn(C)c2c(C(=O)N3CC[C@H](O)C3)cccc12` (mixture of isomers) [Example 118, rac-{3-[(3S,4R)-4-(dimethylamino)-1-(7-fluoro-2,3-dihydro-1H-inden-1-yl)pyrrolidin-3-yl]-1-methyl-1H-indol-7-yl}[(3S)-3-hydroxypyrrolidin-1-yl]methanone], the values for the IC50 in experiment [1] and in experiment [2] were 3.35 nM and 298 nM, respectively.

`CN(C)[C@@H]1CN(C2CCc3cccc(F)c32)C[C@H]1c1ccc(C(N)=O)cc1` (mixture of isomers) [Example 35, rac-4-[(3R,4S)-4-(dimethylamino)-1-(7-fluoro-2,3-dihydro-1H-inden-1-yl)pyrrolidin-3-yl]benzamide]: the values for the IC50 in experiment [1] and in experiment [2] were 6.8 nM and above 10000 nM, respectively.

Regarding `CN(C)[C@@H]1CN(C2CCc3cccc(F)c32)C[C@H]1c1ccc(N2CCNCC2)cc1` (mixture of isomers) [Example 41, rac-(3S,4R)-1-(7-fluoro-2,3-dihydro-1H-inden-1-yl)-N,N-dimethyl-4-[4-(piperazin-1-yl)phenyl]pyrrolidin-3-amine], the figures for the IC50 in experiment [1] and in experiment [2] were 1.99 nM and 188 nM, respectively.

In the case of `CC(=O)N1CCN(c2ccc([C@H]3CN(C4CCc5cccc(F)c54)C[C@@H]3N(C)C)cc2C)CC1` (mixture of isomers) [Example 60, rac-1-(4-{4-[(3S,4R)-4-(dimethylamino)-1-(7-fluoro-2,3-dihydro-1H-inden-1-yl)pyrrolidin-3-yl]-2-methylphenyl}piperazin-1-yl)ethan-1-one], the IC50 in experiment [1] stood at 6.62 nM; in experiment [2], 302 nM.

For `CN(C)[C@@H]1CN(C2CCc3cccc(F)c32)C[C@H]1c1ccc(-c2ncco2)cc1` (mixture of isomers) [Example 66, rac-(3S,4R)-1-(7-fluoro-2,3-dihydro-1H-inden-1-yl)-N,N-dimethyl-4-[4-(1,3-oxazol-2-yl)phenyl]pyrrolidin-3-amine], the IC50 was 2.68 nM in experiment [1] and 1130 nM in experiment [2].

For `Cc1noc(-c2ccc([C@H]3CN(C4CCc5cccc(F)c54)C[C@@H]3N(C)C)cc2)n1` (mixture of isomers) [Example 67, rac-(3R,4S)-1-(7-fluoro-2,3-dihydro-1H-inden-1-yl)-N,N-dimethyl-4-[4-(3-methyl-1,2,4-oxadiazol-5-yl)phenyl]pyrrolidin-3-amine], the values for the IC50 in experiment [1] and in experiment [2] were 3.06 nM and 1630 nM, respectively.

For `Cc1nnc(-c2ccc([C@@H]3CN(C4CCc5cccc(F)c54)C[C@H]3N(C)C)cc2)o1` (mixture of isomers) [Example 68, rac-(3S,4R)-1-(7-fluoro-2,3-dihydro-1H-inden-1-yl)-N,N-dimethyl-4-[4-(5-methyl-1,3,4-oxadiazol-2-yl)phenyl]pyrrolidin-3-amine], the figures for the IC50 in experiment [1] and in experiment [2] were 2.37 nM and 491 nM, respectively.

Regarding `CN(C)[C@H]1CN(C2CCc3cccc(F)c32)C[C@@H]1c1cn(C)c2c(C(=O)O)cccc12` (mixture of isomers) [Example 80, rac-3-[(3S,4R)-4-(dimethylamino)-1-(7-fluoro-2,3-dihydro-1H-inden-1-yl)pyrrolidin-3-yl]-1-methyl-1H-indole-7-carboxylic acid], the IC50 in experiment [1] turned out to be 9.44 nM; in experiment [2], 1520 nM.

As to `CN(C)[C@H]1CN(C2CCc3cc(F)cc(F)c32)C[C@@H]1c1cn(C)c2ccccc12` (mixture of isomers) [Example 95, rac-(3R,4S)-1-(5,7-difluoro-2,3-dihydro-1H-inden-1-yl)-N,N-dimethyl-4-(1-methyl-1H-indol-3-yl)pyrrolidin-3-amine], the IC50 was found to be 2.7 nM in experiment [1] and 1720 nM in experiment [2].

In the case of `CN(CCO)C(=O)c1cccc2c([C@H]3CN(C4CCc5cccc(F)c54)C[C@@H]3N(C)C)cn(C)c12` (mixture of isomers) [Example 98, rac-3-[(3S,4R)-4-(dimethylamino)-1-(7-fluoro-2,3-dihydro-1H-inden-1-yl)pyrrolidin-3-yl]-N-(2-hydroxyethyl)-N,1-dimethyl-1H-indole-7-carboxamide], the IC50 is 1.37 nM in experiment [1] and 126 nM in experiment [2].

`CNC(=O)c1cccc2c([C@H]3CN(C4CCc5cccc(F)c54)C[C@@H]3N(C)C)cn(C)c12` (mixture of isomers) [Example 99, rac-3-[(3S,4R)-4-(dimethylamino)-1-(7-fluoro-2,3-dihydro-1H-inden-1-yl)pyrrolidin-3-yl]-N,1-dimethyl-1H-indole-7-carboxamide]: the IC50 in experiment [1] was 1.91 nM; in experiment [2] it was 303 nM.

As for `CN(C)[C@H]1CN(C2CCc3cccc(F)c32)C[C@@H]1c1cn(C)c2c(C(=O)NC3CC(O)C3)cccc12` (mixture of isomers) [Example 108, rac-3-[(3S,4R)-4-(dimethylamino)-1-(7-fluoro-2,3-dihydro-1H-inden-1-yl)pyrrolidin-3-yl]-N-(3-hydroxycyclobutyl)-1-methyl-1H-indole-7-carboxamide], the figures for the IC50 in experiment [1] and in experiment [2] were 1.5 nM and 152 nM, respectively.

Turning to `CN(C(=O)c1cccc2c([C@H]3CN(C4CCc5cccc(F)c54)C[C@@H]3N(C)C)cn(C)c12)C1CC(O)C1` (mixture of isomers) [Example 109, rac-3-[(3S,4R)-4-(dimethylamino)-1-(7-fluoro-2,3-dihydro-1H-inden-1-yl)pyrrolidin-3-yl]-N-(3-hydroxycyclobutyl)-N,1-dimethyl-1H-indole-7-carboxamide], the IC50 turned out to be 1.6 nM in experiment [1] and 141 nM in experiment [2].

Turning to `CN(C)C1CN(C2CCc3cccc(F)c32)CC1c1cn(C)c2cc(C(=O)N3CCC(O)C3)ccc12` (racemic) [Example 111, rac-{3-[(3S,4R)-4-(dimethylamino)-1-(7-fluoro-2,3-dihydro-1H-inden-1-yl)pyrrolidin-3-yl]-1-methyl-1H-indol-6-yl}[(35)-3-hydroxypyrrolidin-1-yl]methanone], the values for the IC50 in experiment [1] and in experiment [2] were 2.59 nM and 171 nM, respectively.

`CN(C)[C@H]1CN(C2CCc3cccc(F)c32)C[C@@H]1c1cn(C)c2c(C(=O)NC3CCS(=O)(=O)C3)cccc12` (mixture of isomers) [Example 115, rac-3-[(3S,4R)-4-(dimethylamino)-1-(7-fluoro-2,3-dihydro-1H-inden-1-yl)pyrrolidin-3-yl]-N-(1,1-dioxo-1lambda~6~-thiolan-3-yl)-1-methyl-1H-indole-7-carboxamide]: the figures for the IC50 in experiment [1] and in experiment [2] were 1.73 nM and 224 nM, respectively.

For `CN(C)[C@H]1CN(C2CCc3cccc(F)c32)C[C@@H]1c1cn(C)c2c(C(=O)N3CCC[C@H]3C(N)=O)cccc12` (mixture of isomers) [Example 117, rac-1-{3-[(3S,4R)-4-(dimethylamino)-1-(7-fluoro-2,3-dihydro-1H-inden-1-yl)pyrrolidin-3-yl]-1-methyl-1H-indole-7-carbonyl}-L-prolinamide], the IC50 in experiment [1] is 1.26 nM; in experiment [2], 111 nM.

On to `CN(C)[C@H]1CN(C2CCc3cccc(F)c32)C[C@@H]1c1cn(C)c2cc(C(=O)N3CCN(S(C)(=O)=O)CC3)ccc12` (mixture of isomers) [Example 122, rac-{3-[(3S,4R)-4-(dimethylamino)-1-(7-fluoro-2,3-dihydro-1H-inden-1-yl)pyrrolidin-3-yl]-1-methyl-1H-indol-6-yl}[4-(methanesulfonyl)piperazin-1-yl]methanone], for which the figures for the IC50 in experiment [1] and in experiment [2] were 2.88 nM and 556 nM, respectively.

Take `CC(=O)N1CCN(C(=O)c2ccc3c([C@H]4CN(C5CCc6cccc(F)c65)C[C@@H]4N(C)C)cn(C)c3c2)CC1` (mixture of isomers) [Example 123, rac-1-(4-{3-[(3S,4R)-4-(dimethylamino)-1-(7-fluoro-2,3-dihydro-1H-inden-1-yl)pyrrolidin-3-yl]-1-methyl-1H-indole-6-carbonyl}piperazin-1-yl)ethan-1-one]: the IC50 in experiment [1] was 3.53 nM; in experiment [2], 1530 nM.

For `CN(C)C(=O)N1CCN(C(=O)c2cccc3c([C@H]4CN(C5CCc6cccc(F)c65)C[C@@H]4N(C)C)cn(C)c23)CC1` (mixture of isomers) [Example 127, rac-4-{3-[(3S,4R)-4-(dimethylamino)-1-(7-fluoro-2,3-dihydro-1H-inden-1-yl)pyrrolidin-3-yl]-1-methyl-1H-indole-7-carbonyl}-N,N-dimethylpiperazine-1-carboxamide], the values for the IC50 in experiment [1] and in experiment [2] were 1.75 nM and 335 nM, respectively.

With `CN(C)[C@H]1CN(C2CCc3cccc(F)c32)C[C@@H]1c1cn(C)c2c(C(=O)N3CCN4CCNC(=O)C4C3)cccc12` (mixture of isomers) [Example 134, rac-8-{3-[(3S,4R)-4-(dimethylamino)-1-(7-fluoro-2,3-dihydro-1H-inden-1-yl)pyrrolidin-3-yl]-1-methyl-1H-indole-7-carbonyl}hexahydro-2H-pyrazino[1,2-a]pyrazin-1(6H)-one], the IC50 was determined as 2.5 nM in experiment [1] and 833 nM in experiment [2].

Regarding `CN(C)[C@H]1CN(C2CCc3cccc(F)c32)C[C@@H]1c1cn(C)c2c(C(=O)N3CCN(c4cccnn4)CC3)cccc12` (mixture of isomers) [Example 137, rac-{3-[(3S,4R)-4-(dimethylamino)-1-(7-fluoro-2,3-dihydro-1H-inden-1-yl)pyrrolidin-3-yl]-1-methyl-1H-indol-7-yl}[4-(pyridazin-3-yl)piperazin-1-yl]methanone], the IC50 in experiment [1] was 1.91 nM; in experiment [2], 299 nM.

Turning to `CN(C)[C@H]1CN(C2CCc3cccc(F)c32)C[C@@H]1C1CCN(c2ccccc2)CC1` (mixture of isomers) [Example 146, rac-(3R,4S)-1-(7-fluoro-2,3-dihydro-1H-inden-1-yl)-N,N-dimethyl-4-(1-phenylpiperidin-4-yl)pyrrolidin-3-amine], the IC50 in experiment [1] is 4.58 nM; in experiment [2], 2900 nM.

(Values after US9957274B2, “Indane inhibitors of EED and methods of their use” (AbbVie Inc., priority 2016, dated 2018).)
